Source: patent US20250312291A1, “DIARYLHEPTANOID BASED MEDICINAL PREPARATION AND METHOD OF PREPARATION OF THE SAME” (ARJUNA NATURAL PRIVATE LIMITED, priority 2022, published 2025)

System: Amphistome ova
Assay: Deworming in cows positive for Amphistome ova (ova checked from dung matter)
Type: in vivo
Details: before treatment (baseline)
Text: In one embodiment efficacy of diarylheptanoid metal complex on deworming in cows was studied. Cows positive for Amphistome ova were selected and treated with diarylheptanoid metal complex. Deworming in cows is important for several reasons. First, internal parasites or worms can cause significant harm to cow health and productivity. These parasites can cause damage to the cow's gastrointestinal tract, leading to reduced feed intake, weight loss, and poor growth rates. In severe cases, internal parasites can even lead to death. Second, internal parasites can also have economic impacts on the farm. Infected cows may have reduced milk production and lower-quality meat, which can lead to financial losses for the farmer. Third, internal parasites can also be a source of infection for other animals on the farm. Some parasites can be passed from cow to cow or from cow to other species such as sheep or goats. After 30 days of treatment with diarylheptanoid calcium complex, the number of Ova in the dung matter is nil compared to untreated control.
Twenty cows that were positive for Amphistome ova were selected for this study. Cows were grouped into four groups with 5 cows in each group. Cows were segregated as follows.
Before and after 30 days of treatment ova was checked from the dung matter.

## CCCSc1ccc2nc(NC(=O)OC)[nH]c2c1 [Albendazole]
  Ova Before: + + + + +
